Experimental findings from paper PMC10878397, “Development of Potent Dual BET/HDAC Inhibitors via Pharmacophore Merging and Structure-Guided Optimization” (ACS Chemical Biology, 2024) are described below.

Molecules are shown by their SMILES. Read-outs that look alike come from different tables or passages of the source.

One assay deals with BRD4 bromodomains (Homo sapiens, UniProt O60885). Nature of the assay: NanoBRET target engagement assay, both bromodomains. The assay is classed as cell-based. As to the method: (§1) The assay was performed as described previously.[17],[59] In brief, BRD4 bromodomains and full-length HDACs were obtained as plasmids cloned in-frame with a terminal NanoLuc fusion (Promega). Plasmids were transfected into HEK293T cells using FuGENE HD (Promega, E2312), and proteins were allowed to express for 20 h. Serially diluted inhibitor and the corresponding NanoBRET Tracer (Promega) at a concentration determined previously as the tracer KD, app were pipetted into white 384-well plates (Greiner #781207) for BRD assays or white 96-well plates (Corning #3600) for HDAC using an Echo acoustic dispenser (Labcyte). The corresponding protein-transfected cells were added and reseeded at a density of 2 × 10^5 cells/mL after trypsinization and resuspended in Opti-MEM without phenol red (Life Technologies). The system was allowed to equilibrate for 2 h at 37 °C/5% CO2 prior to BRET measurements. To measure BRET, NanoBRET NanoGlo substrate + Extracellular NanoLuc Inhibitor (Promega, N2540) was added as per the manufacturer’s protocol, and filtered luminescence was measured on a PHERAstar plate reader (BMG Labtech) equipped with a luminescence filter pair (450 nm BP filter (donor) and 610 nm LP filter (acceptor)). For lysed-mode NanoBRET experiments, digitonin (Promega, #G9441) was added as per the manufacturer’s instructions to a final concentration of […].
(Bioluminescence resonance energy transfer reports proximity on the nanometre scale.)

The target in the next assay is T1, BAZ2B (Homo sapiens, UniProt Q9UIF8).
T1 construct: purchased in-house (SGC Frankfurt recombinant bromodomain DSF panel)
Kind of assay: DSF bromodomain selectivity panel. In kind it is binding. The settings on record: 10 μM compound. As to the method: (§2) The effects of inhibitor binding on the apparent melting temperature of recombinant bromodomains were determined by DSF in a 96-well plate (Starlab) at a protein concentration of 2 μM with 10 μΜ compound in buffer containing 25 mM HEPES, pH 7.5, 150 mM NaCl, and 0.5 mM TCEP. […] Protein unfolding profiles were recorded using an MX3005P real-time qPCR instrument (Agilent; excitation/emission filters = 492/610 nm) while increasing the temperature from 25 to 95 °C at a heating rate of 3 °C/min. Tm values were calculated after fitting the fluorescence curves to the Boltzmann equation. Differences in melting temperature upon compound binding are given as ΔTm = Tm (protein with inhibitor) – Tm (protein with DMSO control). Measurements were performed in triplicates.

The target in the next assay is T2, BRD9 (Homo sapiens, UniProt Q9H8M2).
T2 construct: purchased in-house (SGC Frankfurt recombinant bromodomain DSF panel)
Kind of assay: DSF bromodomain selectivity panel. The assay is classed as binding. The settings on record: 10 μM compound. As to the method: as §2

For the next assay, the target named is T3, BRPF3 (Homo sapiens, UniProt Q9ULD4).
T3 construct: purchased in-house (SGC Frankfurt recombinant bromodomain DSF panel)
Nature of the assay: DSF bromodomain selectivity panel. The settings on record: 10 μM compound. In kind it is binding. As to the method:
as §2

In a further assay the target is T4, WDR9A(1) (Homo sapiens, UniProt Q9NSI6).
T4 construct: WDR9A(1); purchased in-house (SGC Frankfurt recombinant bromodomain DSF panel)
Nature of the assay: DSF bromodomain selectivity panel. The assay is classed as binding. The settings on record: 10 μM compound. As to the method: as §2

The next assay concerns panel of 32 bromodomains. Kind of assay: DSF selectivity screen, whole panel. In kind it is binding. The settings on record: 10 μM compound. The procedure: as §2
The target in assay [1] is T5, BRD4 BD1 (Homo sapiens, UniProt O60885). Nature of the assay: NanoBRET target engagement assay (HEK293T). The assay is classed as cell-based. Also on record: BRD4 bromodomains and full-length HDACs were obtained as plasmids cloned in-frame with a terminal NanoLuc fusion; host or cells: HEK293T. The settings on record: intact cells. The procedure:
as §1

A further assay addresses BRD4 BD2 (Homo sapiens, UniProt O60885). Nature of the assay: NanoBRET target engagement assay (HEK293T). The assay is classed as cell-based. Also noted: BRD4 bromodomains and full-length HDACs were obtained as plasmids cloned in-frame with a terminal NanoLuc fusion; host or cells: HEK293T. The settings on record: intact cells. The procedure: as §1
Assay [2] deals with T5, BRD4 BD1. Nature of the assay: Isothermal titration calorimetry. In kind it is binding. Also on record: BRD4 BD1 (residues N44-E168) for structural studies was subcloned in the pNIC28-Bsa4 vector; His6 (followed by a TEV site) (N, cleaved yes); made in house; host or cells: Escherichia coli BL21(D3)-R3-pRARE2 Rosetta. The settings on record: for ITC -TΔS / ITC Ka / ITC n (stoichiometry) / ITC ΔG / ITC ΔH / ITC ΔS / Kd: 15 °C. The procedure: ITC measurements were performed using a Nano ITC microcalorimeter (TA Instruments, New Castle, Pennsylvania). For all experiments, reverse titration was performed (syringe containing the protein solution; cell containing the ligand) in ITC buffer containing 25 mM HEPES, pH 7.5, 150 mM NaCl, 0.5 mM TCEP, and 5% glycerol. All compounds were diluted from 50 mM DMSO stocks to 20 μΜ in ITC buffer, and BRD4-BD1 was diluted to 120 μΜ in a DMSO-adjusted ITC buffer. BRD4-BD1 (120 μΜ) was titrated into the compound solution (20 μΜ) with an initial injection (4 μL) followed by 29 identical injections (8 μL), at a rate of 0.5 μL/s and with 150 or 200 s intervals. All experiments were performed at 15 °C while stirring at 350 rpm. The heat of dilution was determined by independent titrations (protein into buffer) and subtracted from the experimental raw data. Data were processed using NanoAnalyze software (version 3.10.0) provided by the instrument manufacturer. The first injection was excluded from the analysis, and fitted curves were generated by applying the independent model (single binding site) to the raw data. Complete thermodynamic data analysis can be found in Table S2.
(In general: Isothermal titration calorimetry measures the heat released or taken up as one component is titrated into another.)

Assay [3] relates to MYC mRNA in NMC HCC2429 cells. Kind of assay: Quantitative RT-PCR of oncogenic drivers. In kind it is cell-based. The settings on record: HCC2429, 6 h, 1 μΜ compound. The procedure:
(§3) Total RNA was extracted from cell culture using the Maxwell RSC simply RNA Cells Kit (Promega) according to the manufacturer’s protocol. cDNA was synthesized using PrimeScript Reverse Transcriptase (TakaRa) and amplified using homemade PCR master mix. The amplicon was detected by EvaGreen Dye using a LightCycler 480 instrument (Roche). PCR conditions were 5 min at 95 °C, followed by 45 cycles of 95 °C for 10 s, 59 °C for 10 s, and 72 °C for 20 s. The relative gene expression levels were normalized to GUSB and calculated using the 2^–ΔΔC^t method.

In assay [4] the test system is TP63 mRNA in NMC HCC2429 cells. Nature of the assay: Quantitative RT-PCR of oncogenic drivers. The assay is classed as cell-based. The settings on record: HCC2429, 6 h, 1 μΜ compound. As to the method: as §3
Where [5] appears, read: 95% confidence level, read-out: ITC Kd.

T4 sequence (Q9NSI6 1150-1280 limits assumed): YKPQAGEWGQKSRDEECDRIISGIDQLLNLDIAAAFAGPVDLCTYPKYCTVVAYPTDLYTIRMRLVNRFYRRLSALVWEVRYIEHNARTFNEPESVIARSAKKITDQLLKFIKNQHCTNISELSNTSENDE
T2 sequence (Q9H8M2 whole entry): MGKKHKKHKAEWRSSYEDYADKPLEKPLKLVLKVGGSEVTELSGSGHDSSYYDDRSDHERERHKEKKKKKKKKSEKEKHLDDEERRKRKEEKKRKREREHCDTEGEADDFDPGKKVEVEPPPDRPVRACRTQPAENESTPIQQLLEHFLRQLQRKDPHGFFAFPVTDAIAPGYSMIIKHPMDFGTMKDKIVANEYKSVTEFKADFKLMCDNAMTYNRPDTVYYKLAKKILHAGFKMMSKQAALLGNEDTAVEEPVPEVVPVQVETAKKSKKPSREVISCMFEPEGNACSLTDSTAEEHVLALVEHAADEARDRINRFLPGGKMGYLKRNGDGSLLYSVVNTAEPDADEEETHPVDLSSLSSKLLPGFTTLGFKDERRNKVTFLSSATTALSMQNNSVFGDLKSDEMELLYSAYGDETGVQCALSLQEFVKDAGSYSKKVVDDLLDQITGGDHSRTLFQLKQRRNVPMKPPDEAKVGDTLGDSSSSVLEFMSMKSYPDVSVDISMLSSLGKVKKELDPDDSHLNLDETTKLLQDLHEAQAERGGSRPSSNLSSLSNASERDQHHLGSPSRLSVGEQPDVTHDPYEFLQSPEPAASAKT
T3 sequence (Q9ULD4 whole entry): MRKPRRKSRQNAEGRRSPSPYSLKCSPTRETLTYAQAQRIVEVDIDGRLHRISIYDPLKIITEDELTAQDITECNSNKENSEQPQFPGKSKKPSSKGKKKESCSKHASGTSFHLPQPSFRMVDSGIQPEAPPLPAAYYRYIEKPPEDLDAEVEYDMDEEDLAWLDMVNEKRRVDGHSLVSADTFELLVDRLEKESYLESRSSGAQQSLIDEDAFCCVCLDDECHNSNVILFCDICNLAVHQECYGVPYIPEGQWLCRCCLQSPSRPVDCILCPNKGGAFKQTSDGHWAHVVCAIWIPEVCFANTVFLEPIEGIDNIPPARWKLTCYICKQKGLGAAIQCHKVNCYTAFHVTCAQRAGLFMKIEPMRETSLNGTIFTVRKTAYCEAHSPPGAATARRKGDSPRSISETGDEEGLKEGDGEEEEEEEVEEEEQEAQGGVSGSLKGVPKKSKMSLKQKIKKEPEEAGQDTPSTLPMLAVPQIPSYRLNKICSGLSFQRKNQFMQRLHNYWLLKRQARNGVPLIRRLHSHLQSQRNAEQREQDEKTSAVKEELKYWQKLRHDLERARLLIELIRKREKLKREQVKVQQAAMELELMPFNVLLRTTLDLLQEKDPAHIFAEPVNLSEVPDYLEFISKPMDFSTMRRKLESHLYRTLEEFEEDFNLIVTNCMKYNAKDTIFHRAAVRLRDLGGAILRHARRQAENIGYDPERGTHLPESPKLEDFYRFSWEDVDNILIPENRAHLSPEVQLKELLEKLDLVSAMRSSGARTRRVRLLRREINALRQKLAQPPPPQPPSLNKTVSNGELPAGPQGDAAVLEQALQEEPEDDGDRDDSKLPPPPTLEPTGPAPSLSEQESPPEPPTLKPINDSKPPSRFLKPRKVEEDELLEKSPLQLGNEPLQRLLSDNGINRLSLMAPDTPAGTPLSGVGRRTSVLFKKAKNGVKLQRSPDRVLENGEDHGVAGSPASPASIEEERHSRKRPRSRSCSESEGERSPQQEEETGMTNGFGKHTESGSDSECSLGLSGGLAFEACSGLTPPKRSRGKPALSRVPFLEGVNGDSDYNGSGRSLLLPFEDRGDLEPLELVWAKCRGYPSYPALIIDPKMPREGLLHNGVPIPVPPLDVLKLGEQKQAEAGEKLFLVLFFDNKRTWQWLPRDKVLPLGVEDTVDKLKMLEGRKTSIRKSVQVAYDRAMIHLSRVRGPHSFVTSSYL
T1 sequence (Q9UIF8 whole entry): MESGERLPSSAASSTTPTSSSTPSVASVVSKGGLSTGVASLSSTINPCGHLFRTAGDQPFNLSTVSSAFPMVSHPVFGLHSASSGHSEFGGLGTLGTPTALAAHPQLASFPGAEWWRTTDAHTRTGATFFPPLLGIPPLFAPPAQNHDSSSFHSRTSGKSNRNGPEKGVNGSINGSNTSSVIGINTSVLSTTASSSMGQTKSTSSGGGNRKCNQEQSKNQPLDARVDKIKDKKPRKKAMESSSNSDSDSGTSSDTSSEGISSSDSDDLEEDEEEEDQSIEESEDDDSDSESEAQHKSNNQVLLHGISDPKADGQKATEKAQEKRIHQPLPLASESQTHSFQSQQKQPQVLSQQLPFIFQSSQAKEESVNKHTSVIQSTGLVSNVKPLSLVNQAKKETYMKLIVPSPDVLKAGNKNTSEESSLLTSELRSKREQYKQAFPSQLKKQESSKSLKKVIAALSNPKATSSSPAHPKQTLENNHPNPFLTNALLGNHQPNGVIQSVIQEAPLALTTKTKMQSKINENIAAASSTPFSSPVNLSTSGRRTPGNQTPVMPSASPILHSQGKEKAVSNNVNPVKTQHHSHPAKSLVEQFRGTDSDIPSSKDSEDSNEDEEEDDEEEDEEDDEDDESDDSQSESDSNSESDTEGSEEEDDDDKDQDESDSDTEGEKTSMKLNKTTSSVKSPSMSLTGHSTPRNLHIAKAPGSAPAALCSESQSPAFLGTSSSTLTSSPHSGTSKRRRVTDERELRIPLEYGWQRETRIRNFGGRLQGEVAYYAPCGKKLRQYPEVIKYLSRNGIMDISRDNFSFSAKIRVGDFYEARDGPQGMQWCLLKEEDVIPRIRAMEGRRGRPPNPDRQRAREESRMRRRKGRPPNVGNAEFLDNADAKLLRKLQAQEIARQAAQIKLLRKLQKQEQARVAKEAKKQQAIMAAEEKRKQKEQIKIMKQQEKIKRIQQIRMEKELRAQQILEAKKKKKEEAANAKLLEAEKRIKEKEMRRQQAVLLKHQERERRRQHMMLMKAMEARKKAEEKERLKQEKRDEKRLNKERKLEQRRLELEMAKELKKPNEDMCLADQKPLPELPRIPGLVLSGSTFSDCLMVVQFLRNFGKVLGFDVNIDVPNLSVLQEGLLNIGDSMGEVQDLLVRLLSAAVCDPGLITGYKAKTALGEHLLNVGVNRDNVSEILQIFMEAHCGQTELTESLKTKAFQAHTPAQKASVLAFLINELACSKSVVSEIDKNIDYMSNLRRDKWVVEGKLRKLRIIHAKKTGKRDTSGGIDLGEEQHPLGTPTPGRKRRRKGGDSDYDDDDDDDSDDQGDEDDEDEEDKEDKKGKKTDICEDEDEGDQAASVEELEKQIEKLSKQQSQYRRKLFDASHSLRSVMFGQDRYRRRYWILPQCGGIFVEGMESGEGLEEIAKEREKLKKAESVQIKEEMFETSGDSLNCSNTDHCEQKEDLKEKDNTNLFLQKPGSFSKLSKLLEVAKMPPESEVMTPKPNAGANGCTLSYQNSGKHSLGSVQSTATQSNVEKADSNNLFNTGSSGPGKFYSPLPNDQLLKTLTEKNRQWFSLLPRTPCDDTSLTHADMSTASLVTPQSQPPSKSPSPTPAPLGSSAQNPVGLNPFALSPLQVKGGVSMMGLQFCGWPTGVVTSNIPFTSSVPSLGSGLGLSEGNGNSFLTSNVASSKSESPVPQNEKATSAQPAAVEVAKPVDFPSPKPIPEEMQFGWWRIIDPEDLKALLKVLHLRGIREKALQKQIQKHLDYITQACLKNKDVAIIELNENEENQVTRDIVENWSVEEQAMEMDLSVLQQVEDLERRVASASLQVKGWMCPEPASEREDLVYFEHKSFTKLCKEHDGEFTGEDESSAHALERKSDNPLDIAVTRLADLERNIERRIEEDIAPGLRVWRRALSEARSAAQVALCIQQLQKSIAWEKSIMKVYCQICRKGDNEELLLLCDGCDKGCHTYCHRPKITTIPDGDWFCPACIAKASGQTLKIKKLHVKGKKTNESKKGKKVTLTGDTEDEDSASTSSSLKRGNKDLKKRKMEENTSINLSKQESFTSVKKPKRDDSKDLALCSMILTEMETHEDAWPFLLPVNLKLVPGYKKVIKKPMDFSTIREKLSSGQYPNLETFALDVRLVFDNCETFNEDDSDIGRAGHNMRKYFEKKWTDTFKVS

For orientation: EC50 means the concentration giving half of the maximal effect. Broadly, the Kd is the equilibrium constant for the complex coming apart. Consider `Cn1cc(-c2ccc(C(=O)Nc3ccccc3N)cc2)c2cc[nH]c2c1=O` [NB462], for which, at BRD4 bromodomains (BD1 and BD2, intact cells, read-out: NanoBRET EC50 BRD4 bromodomains), the EC50 lay in the range of 100 to 400 nM. Moreover, the “Mean Tm BAZ2B” value on BAZ2B came to 0.5 ± 0.0 K. For the same compound, the “Mean Tm BRD9” value at BRD9 came to 5.2 ± 1.2 K. The “Mean Tm BRPF3” value on BRPF3 is -0.5 ± 0.1 K. Moreover, the “Mean Tm WDR9A(1)” value at WDR9A(1) is -0.3 ± 0.2 K. In addition, the “bromodomain selectivity in DSF screen” value in the assay on panel of 32 bromodomains is “BRD7 and BRD9 as prominent off-targets”. Also, a half-maximal response on BRD4 BD1 [1] (EC50) required 250 ± 20 nM. For the same compound, the EC50 on BRD4 BD2 is 190 ± 20 nM. Besides, on BRD4 BD1 [2], the “ITC -TΔS” value worked out at 1.371 kcal/mol, the “ITC Ka” value is on record as 6.58E+06 Mˉ¹, the “ITC n (stoichiometry)” value is 0.996 ± 0.029 and the “ITC ΔG” value is given as -8.99 kcal/mol. In addition, at BRD4 BD1 [2], the “ITC ΔH” value was -10.36 ± 0.501 kcal/mol and the “ITC ΔS” value is -4.759 cal/mol·K. For the same compound, on BRD4 BD1 [2] (setting [5]), the Kd was 152 nM.

Take `Cn1cc(-c2ccc(C(=O)Nc3ccccc3N)nc2)c2cc[nH]c2c1=O` [NB500]: the “MYC mRNA levels” value in assay [3] is on record as “strongest effect”. Also, in [4], the “TP63 mRNA levels” value is recorded as “strongest effect”. For the same compound, on BRD4 BD1 [1], a half-maximal response (EC50) required 240 ± 20 nM. The same compound had an EC50 on BRD4 BD2 of 160 ± 40 nM. Besides, on BRD4 BD1 [2], the “fold increased binding affinity to BRD4 BD1 in ITC vs NB462” value is given as 3 fold, the “ITC -TΔS” value is -1.832 kcal/mol, the “ITC Ka” value is 2.18E+07 Mˉ¹ and the “ITC n (stoichiometry)” value turned out to be 1.003 ± 0.022. Moreover, at BRD4 BD1 [2], the “ITC ΔG” value is given as -9.676 kcal/mol, the “ITC ΔH” value is given as -7.844 ± 0.360 kcal/mol and the “ITC ΔS” value was 6.358 cal/mol·K. Besides, at BRD4 BD1 [2] (setting [5]), the Kd is 45.8 nM. Moreover, the Kd at BRD4 BD1 [2] (read-out: ITC Kd BRD4 BD1) turned out to be 46 nM.

`Cn1cc(-c2ccc(C(=O)Nc3cc(-c4ccccc4)ccc3N)cc2)c2cc[nH]c2c1=O` [NB503]: the “Mean Tm BAZ2B” value at BAZ2B is 1.4 ± 0.1 K. The “Mean Tm BRD9” value at BRD9 was found to be 1.0 ± 0.8 K. The “Mean Tm BRPF3” value on BRPF3 stood at 1.2 ± 0.1 K. Further, the “Mean Tm WDR9A(1)” value on WDR9A(1) is 0.0 ± 0.0 K. Besides, the “bromodomain selectivity in DSF screen” value in the assay with panel of 32 bromodomains is reported as “high selectivity for BET bromodomains”. For the same compound, the “MYC mRNA levels” value in assay [3] is “strongest effect”. Further, in [4], the “TP63 mRNA levels” value is recorded as “strongest effect”. Besides, the results for the EC50 on BRD4 BD1 [1] and on BRD4 BD2 were 420 ± 110 nM and 520 ± 180 nM, respectively.

With `Cn1cc(-c2ccc(C(=O)Nc3cc(-c4ccccc4)ccc3N)nc2)c2cc[nH]c2c1=O` [NB512], the EC50 is 100 to 400 nM at BRD4 bromodomains (intact and permeabilized cells, read-out: NanoBRET EC50 both BRD4 bromodomains); 360 ± 130 nM at BRD4 BD1 [1]; 250 ± 120 nM on BRD4 BD2.
